Values after ≈ are worked out from the molar mass of the structure shown.
Columns and labels:
[1] = system: E. coli 79; assay: Microbroth dilution MIC with and without sucrose recovery; type: cell-based, Escherichia coli; details: MIC given as multiple of S/I/R; for minimum inhibitory concentration (MIC), Standard: E. coli 79 recovered by standard plating
Protocol: (§1) Microbroth dilution for minimum inhibitory concentrations (MIC) with and without sucrose recovery. To isolate bacteria without sucrose, culture media from positive BacT/alert FA PLUS aerobic culture bottles (bioMérieux, Durham, NC) was serially diluted and plated onto LB agar (Lennox; Sigma-Aldrich, St. Louis, MO). Bacterial suspensions were prepared by resuspending colonies in CAMHB with incubation on a MaxQ 4000 incubator shaker (Thermo Fisher Scientific, Waltham, MA) at 37° C. and ˜225 rpm for 3 hours. Bacteria recovered via Method 2 were diluted 10-fold in CAMHB. Following incubation or sucrose recovery and dilution, bacterial suspensions were adjusted to ˜0.004 OD600 with CAMHB and a 50-μL aliquot distributed to each well of a 96-well plate containing CAMHB with and without clinically relevant antibiotics (2-fold dilution series). Gram-negative plates included: ceftazidime (3rd generation cephalosporin, RPI corp., Mount Prospect, IL), cefepime (4th generation cephalosporin, Chem-Impex Int'l, Wood Dale, IL), meropenem (carbapenem, Tokyo Chemical Industry, Tokyo, Japan), levofloxacin (quinolone, Alfa Aesar, Haverhill, MA), and tobramycin (aminoglycoside, MP Biomedicals LLC, Santa Ana, CA), while S. aureus plates contained: oxacillin (beta-lactam, Sigma-Aldrich, St. Louis, MO), vancomycin (glycopeptide, Santa Cruz Biotechnology, Dallas, TX), erythromycin (macrolide, Sigma-Aldrich, St. Louis, MO), clindamycin ([…]), and ciprofloxacin (fluoroquinolone, Sigma-Aldrich, St. Louis, MO). Antibiotic plates were incubated at 37° C. for 16-20 hours (gram-negative) or 35° C. for 24 hours (S. aureus), at which time, plates were removed from the incubator and visually inspected for bacterial growth. The MIC was set at the lowest antibiotic concentration at which no growth was detected.
(§2) Influence of Sucrose on Bacterial MIC. To rule out the potential effect of sucrose exposure in bacterial antibiotic susceptibility, microbroth dilution studies were performed on bacteria recovered using standard practices (i.e. plating following positive blood culture) and through selective lysis coupled with centrifugation through the sucrose cushion (Method 2).

[2] = system: P. aeruginosa 77; assay: as above; type: cell-based, Pseudomonas aeruginosa; details: MIC given as multiple of S/I/R
Protocol: as §1, §2

[3] = system: S. aureus 78; assay: as above; type: cell-based, Staphylococcus aureus; details: MIC given as multiple of S/I/R; for minimum inhibitory concentration (MIC), Standard: S. aureus 78 recovered by standard plating; for minimum inhibitory concentration (MIC), Sucrose: S. aureus 78 recovered through sucrose (Method 2)
Protocol: as §1, §2

[4] = system: S. aureus; assay: Direct flow cytometric AST (high-throughput flow cytometry, HTFC) of sucrose-recovered bacteria; type: cell-based, Staphylococcus aureus; details: for MIC: Staphylococcus aureus
Protocol: AST workflow using bacteria recovered directly from positive blood culture. A 1-mL aliquot of bacteria recovered using separation method 2 was diluted 10-fold in CAMHB, the OD600 adjusted to ˜0.01, and a 50 μL aliquot distributed into each well of a 96-well plate containing CAMHB with and without ceftazidime, tobramycin, and either meropenem (E. coli and P. aeruginosa) or oxacillin (S. aureus). Following Clinical and Laboratory Standards Institute (CLSI) guidelines^33, 2% sodium chloride (NaCl) was present in wells containing oxacillin to assist in the detection of methicillin-resistant S. aureus (MRSA). […] To account for observed differences in doubling and lag times, E. coli and P. aeruginosa were incubated for 4 hours at 37° C., while S. aureus was incubated for 9 hours at 35° C. After incubation, antibiotic plates were removed from the incubator and directly stored on ice (i.e. no post-processing) until high-throughput flow cytometry (BD LSRFortessa with HTS-system, BD, Franklin Lakes, NJ). No-antibiotic controls and antibiotic-treated samples were handled identically.
MIC Determination by flow cytometry. Because antibiotic effects are observed in both the position of scatter signatures (morphology changes) and count rates (growth inhibition), a modified count rate, accounting for scatter position, was used to evaluate susceptibility. Briefly, no-antibiotic control populations (triplicate) were pooled, binned, and a convex hull boundary set at 1-standard deviation above the background (not including bins with zero counts) was drawn. […] The overlap ratio, measuring changes in morphology, was then computed by dividing the number of sample events within the no-antibiotic control boundary by the total number of events within the sample. As an increase in count rate attributed to viable bacteria in antibiotic-treated samples is not scientifically meaningful, the fractional overlap was multiplied by the minimum of the control and sample count rates to generate a modified count rate accounting for antibiotic-induced morphological changes. All modified count rates were normalized by the average of the no-antibiotic controls. For automatic MIC determination, normalized count rates corresponding to n (index of predicted MIC), n+1, n+2 were iteratively fit to a linear function with a frameshift of n+1 between iterations (FIGS. 8 and 9). […] A threshold of −0.01 instead of zero was used to mitigate the influence of small fluctuations in normalized count rates on susceptibility determinations.

[5] = system: S. aureus; assay: Broth microdilution (BMD) MIC; type: cell-based, Staphylococcus aureus; details: for MIC: Staphylococcus aureus
Protocol: as §1

[6] = system: E. coli; assay: Influence of sucrose on bacterial growth (OD600); type: cell-based, Escherichia coli; details: E. coli recovered in 55% sucrose (w/v), undiluted, 37° C. with shaking
Protocol: (§3) Influence of sucrose on bacterial growth. To determine the effects of sucrose concentration on bacterial growth, bacteria recovered from positive blood cultures following Method 2 were diluted 1-fold (i.e. undiluted), 2-fold, 5-fold, 10-fold, 20-fold, and 100-fold in fresh CAMHB within a 96-well plate. The CAMHB broth inoculated with a fresh overnight culture was used as a positive control. Following dilution, samples were incubated at 37° C. with shaking, and growth was monitored at 15-min intervals via OD600 measurements using a plate reader (Hidex, Turku, Finland). To further investigate the effects of sucrose on bacterial growth, recovered bacteria-sucrose solutions were diluted 10-fold (optimal dilution factor) and growth was compared to control cultures inoculated with the original blood culture, an overnight culture, or colony resuspension without sucrose exposure. Growth (37° C. with shaking) was monitored via OD600 measurements using a Hidex plate reader.
(§4) Impact of sucrose on bacterial growth. […] Recovered bacteria within 55% sucrose (w/v) were directly or 2-fold (27.5%), 5-fold (11%), 10-fold (5.5%), 20-fold (2.75%), and 100-fold (0.55%) diluted in CAMHB and growth monitored on a plate reader set at 37° C. with medium shaking. […]

[7] = system: P. aeruginosa; assay: Influence of sucrose on bacterial growth (OD600); type: cell-based, Pseudomonas aeruginosa; details: P. aeruginosa recovered in 55% sucrose (w/v), undiluted, 37° C. with shaking
Protocol: as §3, §4

[8] = system: S. aureus; assay: Influence of sucrose on bacterial growth (OD600); type: cell-based, Staphylococcus aureus; details: S. aureus recovered in 55% sucrose (w/v), undiluted, 37° C. with shaking
Protocol: as §3, §4

## CO/N=C(\C(=O)N[C@@H]1C(=O)N2C(C(=O)[O-])=C(C[N+]3(C)CCCC3)CS[C@H]12)c1csc(N)n1 [Cefepime, cefepime]
[1]
  minimum inhibitory concentration (MIC), Standard: 2R
[2]; P. aeruginosa 77 recovered by standard plating
  minimum inhibitory concentration (MIC), Standard: ½S
[2]; P. aeruginosa 77 recovered through sucrose (Method 2)
  minimum inhibitory concentration (MIC), Sucrose: ¼S

## CCC[C@@H]1C[C@@H](C(=O)N[C@@H]([C@H]2O[C@H](SC)[C@H](O)[C@@H](O)[C@H]2O)[C@H](C)Cl)N(C)C1 [Clindamycin, clindamycin]
[3]
  minimum inhibitory concentration (MIC), Standard: 4R
  minimum inhibitory concentration (MIC), Sucrose: 4R

## CC[C@H]1OC(=O)[C@H](C)[C@@H](O[C@H]2C[C@@](C)(OC)[C@@H](O)[C@H](C)O2)[C@H](C)[C@@H](O[C@@H]2O[C@H](C)C[C@H](N(C)C)[C@H]2O)[C@](C)(O)C[C@@H](C)C(=O)[C@H](C)[C@@H](O)[C@]1(C)O [Erythromycin, erythromycin]
[3]
  minimum inhibitory concentration (MIC), Standard: 4R
  minimum inhibitory concentration (MIC), Sucrose: 2R

## C[C@H]1COc2c(N3CCN(C)CC3)c(F)cc3c(=O)c(C(=O)O)cn1c23 [Levofloxacin, levofloxacin]
[1]
  minimum inhibitory concentration (MIC), Standard: >4R
[1]; E. coli 79 recovered through sucrose (Method 2)
  minimum inhibitory concentration (MIC), Sucrose: 4R

## Cc1onc(-c2ccccc2)c1C(=O)N[C@@H]1C(=O)N2[C@@H]1SC(C)(C)[C@@H]2C(=O)O [Oxacillin, oxacillin]
[4]; S. aureus ATCC25923, oxacillin 9 hours (35° C.)
  susceptibility classification, HTFC: (MSSA)
[4]; S. aureus ATCC29213, oxacillin 9 hours (35° C.)
  susceptibility classification, HTFC: (MSSA)
[4]; S. aureus ATCC43300, oxacillin 9 hours (35° C.)
  susceptibility classification, HTFC: (MRSA)
[4]; S. aureus Blood Culture A, oxacillin 9 hours (35° C.)
  susceptibility classification, HTFC: (MSSA)
[4]; S. aureus Blood Culture B, oxacillin 9 hours (35° C.)
  susceptibility classification, HTFC: (MRSA)
[4]; S. aureus NRS382, oxacillin 9 hours (35° C.)
  susceptibility classification, HTFC: MRSA
[4]; S. aureus NRS385, oxacillin 9 hours (35° C.)
  susceptibility classification, HTFC: MRSA
[4]; 9 h, read-out: Minimum inhibitory concentration, HTFC, S. aureus Blood Culture A, oxacillin 9 hours (35° C.)
  MIC: 0.125 µg/mL (≈ 0.311 µM)
[4]; 9 h, read-out: Minimum inhibitory concentration, HTFC, S. aureus Blood Culture B, oxacillin 9 hours (35° C.)
  MIC: 4 µg/mL (≈ 9.96 µM)
[4]; ATCC25923, 9 h, read-out: Minimum inhibitory concentration, HTFC, S. aureus ATCC25923, oxacillin 9 hours (35° C.)
  MIC: 0.25 µg/mL (≈ 0.623 µM)
[4]; ATCC29213, 9 h, read-out: Minimum inhibitory concentration, HTFC, S. aureus ATCC29213, oxacillin 9 hours (35° C.)
  MIC: 2 µg/mL (≈ 4.98 µM)
[4]; ATCC43300, 9 h, read-out: Minimum inhibitory concentration, HTFC, S. aureus ATCC43300, oxacillin 9 hours (35° C.)
  MIC: > 4 µg/mL
[4]; S. aureus NRS382, oxacillin 9 hours (35° C.), read-out: Minimum inhibitory concentration, HTFC
  MIC: > 4 µg/mL
[4]; S. aureus NRS385, oxacillin 9 hours (35° C.), read-out: Minimum inhibitory concentration, HTFC
  MIC: > 4 µg/mL
[5]; S. aureus ATCC25923
  susceptibility classification, BMD: (MSSA)
[5]; S. aureus ATCC29213
  susceptibility classification, BMD: (MSSA)
[5]; S. aureus ATCC43300
  susceptibility classification, BMD: (MRSA)
[5]; S. aureus Blood Culture A
  susceptibility classification, BMD: (MSSA)
[5]; S. aureus Blood Culture B
  susceptibility classification, BMD: (MRSA)
[5]; S. aureus NRS382
  susceptibility classification, BMD: (MRSA)
[5]; S. aureus NRS385
  susceptibility classification, BMD: (MRSA)
[5]; ATCC25923, read-out: Minimum inhibitory concentration, BMD, S. aureus ATCC25923
  MIC: 0.125 µg/mL (≈ 0.311 µM)
[5]; ATCC29213, read-out: Minimum inhibitory concentration, BMD, S. aureus ATCC29213
  MIC: 0.25 µg/mL (≈ 0.623 µM)
[5]; ATCC43300, read-out: Minimum inhibitory concentration, BMD, S. aureus ATCC43300
  MIC: 16 µg/mL (≈ 39.9 µM)
[5]; S. aureus NRS382, read-out: Minimum inhibitory concentration, BMD
  MIC: > 16 µg/mL
[5]; S. aureus NRS385, read-out: Minimum inhibitory concentration, BMD
  MIC: > 16 µg/mL
[5]; read-out: Minimum inhibitory concentration, BMD, S. aureus Blood Culture A
  MIC: 0.125 µg/mL (≈ 0.311 µM)
[5]; read-out: Minimum inhibitory concentration, BMD, S. aureus Blood Culture B
  MIC: > 16 µg/mL
[3]
  minimum inhibitory concentration (MIC), Standard: 4R
  minimum inhibitory concentration (MIC), Sucrose: 4R

## CN[C@H](CC(C)C)C(=O)N[C@H]1C(=O)N[C@@H](CC(N)=O)C(=O)N[C@H]2C(=O)N[C@H]3C(=O)N[C@H](C(=O)N[C@H](C(=O)O)c4cc(O)cc(O)c4-c4cc3ccc4O)[C@H](O)c3ccc(c(Cl)c3)Oc3cc2cc(c3O[C@@H]2O[C@H](CO)[C@@H](O)[C@H](O)[C@H]2O[C@H]2C[C@](C)(N)[C@H](O)[C@H](C)O2)Oc2ccc(cc2Cl)[C@H]1O [Vancomycin, vancomycin]
[3]
  minimum inhibitory concentration (MIC), Standard: ¼S
  minimum inhibitory concentration (MIC), Sucrose: ⅛S

## OC[C@H]1O[C@@](CO)(O[C@H]2O[C@H](CO)[C@@H](O)[C@H](O)[C@H]2O)[C@@H](O)[C@@H]1O [sucrose, D (+)-sucrose]
[6]
  bacterial growth (OD600): inhibiting growth completely
[7]
  bacterial growth (OD600): inhibiting growth completely
[8]
  bacterial growth (OD600): inhibiting growth completely
